How the values were obtained:
Coagulation factor X [1] = biological target: T1, Coagulation factor X (Homo sapiens, UniProt P00742); experiment: In vitro inhibitory activity against coagulation factor X.
Plasminogen = Plasminogen (Homo sapiens, UniProt P00747); experiment: Inhibitory activity against plasmin.
[2] = Oral bioavailability in rat (dose 6 mg/kg); type: ADME, organism-based; conditions: in vivo
Prothrombin = Prothrombin (Homo sapiens, UniProt P00734); experiment: Inhibitory activity against thrombin.
[3] = biological target: Vitamin K-dependent protein C (Homo sapiens, UniProt P04070); experiment: Inhibitory activity against activated protein C
Plasma kallikrein = Plasma kallikrein (Homo sapiens, UniProt P03952); experiment: Inhibitory activity against kallikrein
[4] = biological target: Tissue-type plasminogen activator (Homo sapiens, UniProt P00750); experiment: Inhibitory activity against tissue type plasminogen activator.
Coagulation factor X [5] = biological target: T1, Coagulation factor X; experiment: In vitro inhibitory activity against Coagulation factor X
Homo sapiens = species: Homo sapiens; experiment: Concentration required to double the lag time of maximum thrombin generation in human plasma-based thrombin generation assay; type: functional
Serine protease 1 = Serine protease 1 (Homo sapiens, UniProt P07477); experiment: Inhibitory activity against trypsin.
Rattus norvegicus [6] = species: Rattus norvegicus; experiment: Effective dose required for antithrombotic activity in rat vena cava stasis model; type: functional
[7] = Oral bioavailability in dog; type: ADME, organism-based, Canis lupus familiaris; conditions: in vivo
Coagulation factor X [8] = biological target: T1, Coagulation factor X; experiment: Inhibitory activity against Coagulation factor X
Oryctolagus cuniculus [9] = species: Oryctolagus cuniculus; experiment: Percent inhibition of thrombus formation in rabbit deep vein thrombosis at 0.83 uM; type: functional
[10] = Plasma clearance after intravenous administration of 0.4 mg/kg of dose in rats was determined; type: ADME, organism-based; design: dose 0.4 mg/kg, route intravenous; conditions: rat
Oryctolagus cuniculus [11] = species: Oryctolagus cuniculus; experiment: Percent inhibition of thrombus formation in rabbit deep vein thrombosis at 0.25 uM; type: functional
[12] = Half life after intravenous administration was determined in rats at 0.4 mg/kg; conditions: rat, in vivo
Rattus norvegicus [13] = experiment: Volume of distribution after intravenous administration of 0.4 mg/kg of dose in rats was determined; conditions: in vivo
[14] = Oral bioavailability in rats at 6 mg/kg; type: ADME, organism-based; conditions: rat, in vivo

Sequence of Plasminogen (P00747 97-580 limits assumed): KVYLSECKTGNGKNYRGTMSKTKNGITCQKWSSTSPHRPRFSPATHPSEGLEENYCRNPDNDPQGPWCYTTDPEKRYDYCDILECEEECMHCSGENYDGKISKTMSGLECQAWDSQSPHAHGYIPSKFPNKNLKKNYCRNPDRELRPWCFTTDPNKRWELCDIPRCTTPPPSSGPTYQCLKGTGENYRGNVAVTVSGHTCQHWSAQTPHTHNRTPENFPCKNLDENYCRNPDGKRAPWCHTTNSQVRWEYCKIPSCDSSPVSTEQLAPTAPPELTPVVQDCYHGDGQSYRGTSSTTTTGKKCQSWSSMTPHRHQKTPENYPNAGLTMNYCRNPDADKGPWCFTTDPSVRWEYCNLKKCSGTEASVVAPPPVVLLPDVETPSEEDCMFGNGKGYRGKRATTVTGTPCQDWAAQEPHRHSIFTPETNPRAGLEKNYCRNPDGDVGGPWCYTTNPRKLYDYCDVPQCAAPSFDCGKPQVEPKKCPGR
Sequence of Plasminogen (P00747 581-810 limits assumed): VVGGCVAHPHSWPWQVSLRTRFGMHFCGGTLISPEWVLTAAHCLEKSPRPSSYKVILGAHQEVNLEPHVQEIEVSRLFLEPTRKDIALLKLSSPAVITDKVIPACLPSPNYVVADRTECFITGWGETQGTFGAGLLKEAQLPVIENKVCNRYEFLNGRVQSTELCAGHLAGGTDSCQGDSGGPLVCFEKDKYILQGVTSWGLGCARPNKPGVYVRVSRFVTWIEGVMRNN
Sequence of Tissue-type plasminogen activator (P00750 whole entry): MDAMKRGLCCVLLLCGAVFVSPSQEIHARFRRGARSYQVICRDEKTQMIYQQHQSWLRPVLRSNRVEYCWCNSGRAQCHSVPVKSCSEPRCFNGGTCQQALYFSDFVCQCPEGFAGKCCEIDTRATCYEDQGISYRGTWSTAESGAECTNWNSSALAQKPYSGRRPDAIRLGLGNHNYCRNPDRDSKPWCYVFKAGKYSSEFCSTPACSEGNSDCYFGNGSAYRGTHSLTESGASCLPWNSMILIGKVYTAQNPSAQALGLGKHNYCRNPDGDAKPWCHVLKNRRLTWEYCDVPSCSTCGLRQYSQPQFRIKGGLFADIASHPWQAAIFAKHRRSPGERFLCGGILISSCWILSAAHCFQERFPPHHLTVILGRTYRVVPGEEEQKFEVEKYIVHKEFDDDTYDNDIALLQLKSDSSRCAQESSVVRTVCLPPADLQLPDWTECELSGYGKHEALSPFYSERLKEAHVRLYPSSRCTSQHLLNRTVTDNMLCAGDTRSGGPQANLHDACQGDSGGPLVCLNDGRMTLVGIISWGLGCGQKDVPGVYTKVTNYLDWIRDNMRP
Sequence of Vitamin K-dependent protein C (P04070 43-197 limits assumed): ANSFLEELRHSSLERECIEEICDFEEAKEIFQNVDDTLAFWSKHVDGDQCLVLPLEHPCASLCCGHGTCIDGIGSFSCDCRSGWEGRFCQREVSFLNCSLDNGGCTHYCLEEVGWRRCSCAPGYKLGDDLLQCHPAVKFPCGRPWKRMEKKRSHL
Sequence of Vitamin K-dependent protein C (P04070 212-461 limits assumed): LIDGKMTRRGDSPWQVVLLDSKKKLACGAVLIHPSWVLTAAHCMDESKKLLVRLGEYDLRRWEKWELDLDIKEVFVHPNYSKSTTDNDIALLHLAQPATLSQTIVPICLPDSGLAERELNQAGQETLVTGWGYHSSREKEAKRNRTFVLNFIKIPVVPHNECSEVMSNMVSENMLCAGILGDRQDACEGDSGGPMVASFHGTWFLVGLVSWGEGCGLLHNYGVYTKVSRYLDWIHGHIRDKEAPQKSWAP
T1 sequence (P00742 41-179 limits assumed): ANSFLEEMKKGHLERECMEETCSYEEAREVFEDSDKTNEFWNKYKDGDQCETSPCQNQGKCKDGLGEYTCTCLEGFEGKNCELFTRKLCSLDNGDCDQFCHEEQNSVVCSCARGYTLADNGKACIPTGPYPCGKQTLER
T1 sequence (P00742 235-488 limits assumed): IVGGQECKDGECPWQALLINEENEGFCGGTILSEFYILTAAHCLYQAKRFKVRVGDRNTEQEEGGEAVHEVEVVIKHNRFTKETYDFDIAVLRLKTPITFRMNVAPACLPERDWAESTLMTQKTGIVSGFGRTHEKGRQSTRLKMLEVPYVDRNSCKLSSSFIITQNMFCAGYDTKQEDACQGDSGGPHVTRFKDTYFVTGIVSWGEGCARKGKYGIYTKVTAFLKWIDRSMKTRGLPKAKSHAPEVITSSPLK
Sequence of Plasma kallikrein (P03952 20-390 limits assumed): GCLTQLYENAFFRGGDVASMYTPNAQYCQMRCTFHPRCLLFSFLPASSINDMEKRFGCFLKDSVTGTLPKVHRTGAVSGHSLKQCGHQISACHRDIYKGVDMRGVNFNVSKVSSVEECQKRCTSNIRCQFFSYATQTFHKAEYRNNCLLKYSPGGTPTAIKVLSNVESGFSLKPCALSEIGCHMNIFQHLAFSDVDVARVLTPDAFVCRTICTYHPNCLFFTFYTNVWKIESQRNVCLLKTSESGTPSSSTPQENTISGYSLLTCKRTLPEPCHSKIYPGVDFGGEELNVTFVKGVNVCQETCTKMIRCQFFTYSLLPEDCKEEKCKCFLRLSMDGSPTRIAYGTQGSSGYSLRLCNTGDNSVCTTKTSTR
Sequence of Plasma kallikrein (P03952 391-638 limits assumed): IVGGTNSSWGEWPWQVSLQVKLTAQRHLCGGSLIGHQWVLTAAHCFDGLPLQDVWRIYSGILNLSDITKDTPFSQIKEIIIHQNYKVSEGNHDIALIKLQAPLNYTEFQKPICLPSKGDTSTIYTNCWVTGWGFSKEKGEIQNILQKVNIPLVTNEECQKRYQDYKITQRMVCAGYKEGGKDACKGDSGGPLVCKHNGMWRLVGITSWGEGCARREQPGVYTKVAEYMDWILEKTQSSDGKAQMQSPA
Sequence of Serine protease 1 (P07477 whole entry): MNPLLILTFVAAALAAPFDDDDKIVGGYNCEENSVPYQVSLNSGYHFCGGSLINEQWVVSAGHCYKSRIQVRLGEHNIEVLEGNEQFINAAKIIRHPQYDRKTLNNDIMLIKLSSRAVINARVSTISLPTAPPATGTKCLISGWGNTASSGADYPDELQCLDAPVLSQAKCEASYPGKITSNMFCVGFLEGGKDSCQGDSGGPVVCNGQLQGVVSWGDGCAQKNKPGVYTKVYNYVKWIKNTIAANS

Row | IC50 (Coagulation factor X [1]) | IC50 (Plasminogen) | bioavailability [2] | IC50 (Prothrombin) | IC50 [3] | IC50 (Plasma kallikrein) | IC50 [4] | Ki (Coagulation factor X [5]) | IC50 (Serine protease 1) | bioavailability [7] | Ki (Coagulation factor X [8]) | clearance [10] | half-life [12] | Volume of distribution (Rattus norvegicus [13]) | bioavailability [14] | Compound | Activity (Homo sapiens) | ED50 (Rattus norvegicus [6]) | Inhibition (Oryctolagus cuniculus [9]) | Inhibition (Oryctolagus cuniculus [11])
1 | 0.001 µM | > 11 µM | < 1% | > 11 µM | > 11 µM | 0.38 µM | > 11 µM | 0.0001 µM | > 11 µM |  |  |  |  |  |  | CN(Cc1ccc(C(=O)Nc2ccc(Cl)cc2C(=O)Nc2ccc(Cl)cn2)cc1)C(=N)N | 0.38 µM |  |  | 
2 |  | > 11 µM | < 1% | > 11 µM | > 11 µM | 0.5 µM | > 11 µM |  | > 11 µM |  |  |  |  |  |  | CC(=N)N(C)Cc1ccc(C(=O)Nc2ccc(Cl)cc2C(=O)Nc2ccc(Cl)cn2)cc1 | 0.5 µM |  |  | 
3 |  | > 11 µM |  | > 11 µM | > 11 µM | 0.5 µM | > 11 µM |  | > 11 µM |  |  | 20.6 mL/min/kg | 7.5 h | 32.9 L/kg | 100% | CN(C)Cc1ccc(C(=O)Nc2ccc(Cl)cc2C(=O)Nc2ccc(Cl)cn2)cc1 | 3.2 µM |  |  | 
4 | 0.0007 µM | > 11 µM |  | > 11 µM | > 11 µM | 0.79 µM | > 11 µM | 0.0002 µM | > 11 µM |  |  |  |  |  |  | C/N=C(/N)N(C)Cc1ccc(C(=O)Nc2ccc(Cl)cc2C(=O)Nc2ccc(Cl)cn2)cc1 | 0.79 µM |  |  | 

Second part, the molecule before the results:

Row | Compound | IC50 (Coagulation factor X [1]) | IC50 (Plasminogen) | bioavailability [2] | IC50 (Prothrombin) | IC50 [3] | IC50 (Plasma kallikrein) | IC50 [4] | Ki (Coagulation factor X [5]) | IC50 (Serine protease 1) | bioavailability [7] | Ki (Coagulation factor X [8]) | clearance [10] | half-life [12] | Volume of distribution (Rattus norvegicus [13]) | bioavailability [14] | Activity (Homo sapiens) | ED50 (Rattus norvegicus [6]) | Inhibition (Oryctolagus cuniculus [9]) | Inhibition (Oryctolagus cuniculus [11])
5 | N=C1NCCN1Cc1ccc(C(=O)Nc2ccc(Cl)cc2C(=O)Nc2ccc(Cl)cn2)cc1 | 0.0015 µM | > 11 µM | < 1% | > 11 µM | > 11 µM | 0.21 µM | > 11 µM | 0.0005 µM | > 11 µM |  |  |  |  |  |  | 0.58 µM |  |  | 
6 | COc1cc(Cl)cc(C(=O)Nc2ccc(Cl)cn2)c1NC(=O)c1scc(CN(C)C2=NCCO2)c1Cl |  |  |  |  |  |  |  |  |  | 40% |  |  |  |  |  |  | 0.8 µM |  | 
7 | C[N+](C)(C)Cc1ccc(C(=O)Nc2ccc(Cl)cc2C(=O)Nc2ccc(Cl)cn2)cc1 | 0.0008 µM | > 11 µM | < 1% | > 11 µM | > 11 µM | 0.13 µM | > 11 µM | 0.001 µM | > 11 µM |  |  |  |  |  |  | 0.3 µM |  |  | 
8 | CN1CCN=C1N(C)Cc1ccc(C(=O)Nc2ccc(Cl)cc2C(=O)Nc2ccc(Cl)cn2)cc1 | 0.0003 µM | > 11 µM | < 1% | > 11 µM | > 11 µM | 0.3 µM | > 11 µM | 0.0003 µM | > 11 µM |  |  |  |  |  |  | 0.3 µM |  |  | 
9 | CN(C)NCc1ccc(C(=O)Nc2ccc(Cl)cc2C(=O)Nc2ccc(Cl)cn2)cc1 | 0.0009 µM | > 11 µM | 4% | > 11 µM | > 11 µM | 0.64 µM | > 11 µM |  | > 11 µM |  | 0.0003 µM |  |  |  |  | 1.5 µM |  |  | 
10 | N=C1OCCN1Cc1ccc(C(=O)Nc2ccc(Cl)cc2C(=O)Nc2ccc(Cl)cn2)cc1 |  | > 11 µM | 44% | > 11 µM | > 11 µM | 0.56 µM | > 11 µM |  | > 11 µM |  |  | 18.3 mL/min/kg | 8.5 h | 13.6 L/kg |  | 0.56 µM |  | 40% | 25%

Source: ChEMBL document CHEMBL1147578, “Design, synthesis, and SAR of anthranilamide-based factor Xa inhibitors with improved functional activity” (Bioorg Med Chem Lett, 2004)
